Where two headings read alike, the source gives them in different places.
How the values were obtained:
MCF-7 = test: Alamar blue cytotoxicity assay on MCF-7 cancer cells; assay type: cell-based; details: for IC50: Homo sapiens, MCF7, alamar blue, 48 hours treatment
Protocol: (§1) The endothelial cells (human endothelial-like cells, Eahy926) and 4 cancer cell lines (MCF-7, H460, HT-29, and CEM) were derived from the American Type Culture Collection (ATCC) and were maintained in DMEM or RPMI medium (Life Technologies) supplemented with 2 mM L-glutamine and 10% heat-inactivated fetal bovine serum (FBS) (Life Technologies) under standard culture conditions. The cell viability and cell number were determined by the Trypan Blue dye-exclusion method.
(§2) The alamar blue (AB) assay (dye purchased from Biosource International, Nivelles, Belgium) was used to estimate cell viability in accordance with procedures previously described by Fatokun et al (Bone (2006) 39, 542-551). Briefly, cells were treated with various concentration of each of the test compounds (e.g., compounds of example 1.1) at 37° C. for 48 hours, and the medium in each well was then aspirated at the end of the treatment, 100 μL of fresh medium containing 10% v/v AB was then added to the control and the treated wells, respectively. Plates were then incubated at 37° C. for 6 hour prior to measuring the absorbance at 570 nm and at 600 nm wavelengths using a spectrophotometric plate reader (DYNEX Technologies, USA). Experimental data were normalized to control values. CH-205-A, K, L, O, and -P were effective on MCF-7 cells; CH-205-A, H, K, L, O, and -P were effective on H460 cells; CH-205-A and -P were effective on HT-29 cells and CH-205-A, H, N, and -O were effective on CEM cells.

H460 = test: Alamar blue cytotoxicity assay on H460 cancer cells; assay type: cell-based, human; details: for IC50: Homo sapiens, NCI-H460, alamar blue, 48 hours treatment
Protocol: as §1, §2

HT-29 = test: Alamar blue cytotoxicity assay on HT-29 cancer cells; assay type: cell-based; details: for IC50: Homo sapiens, HT-29, alamar blue, 48 hours treatment
Protocol: as §1, §2

CEM = test: Alamar blue cytotoxicity assay on CEM cancer cells; assay type: cell-based; details: for IC50: Homo sapiens, CCRF-CEM, alamar blue, 48 hours treatment
Protocol: as §1, §2

[1] = MTT cell viability of endothelial cells (ECs); assay type: cell-based, human; details: human, column head prints none, read-out: Cell viability IC50 (cytotoxicity concentration on ECs)
Protocol: as §1
(§3) Anti-angiogenic effects of CH-205 compounds were estimated by their inhibition on the growth of endothelial cells. The toxicity of CH-205 compounds to endothelial cells was estimated using MTT (3-(4,5-dimethy;thiazol-2-yl)-2,5-diphenyltetrazolium bromide, a tetrazole) assay. MTT assay is a standard colorimetric assay (an assay which measures changes in color) for measuring the activity of enzymes that reduce yellow MTT to formazan, giving a purple color. It is also used to determine cytotoxity of potential medicinal agents and other toxic materials, since those agents would result in cell toxicity and therefore metabolic dysfunction and therefore decreased performance in the assay. The cytotoxity concentrations of the CH-205 compounds measured in MTT test are all over 20 μM (Table 2), however, their effects on angiogenesis inhibition are in nM range, indicating the safety of these compounds (Table 3).

[2] = tested on: endothelial cells (human endothelial-like cells, Eahy926); test: MTT cell viability of endothelial cells (ECs); assay type: cell-based
Protocol: as §1, §3

endothelial cells (ECs) = test: In vitro antiangiogenesis on ECs (inhibition of endothelial cell growth); assay type: cell-based; details: Homo sapiens, read-out: In vitro antiangiogenesis IC50
Protocol: as §1, §3

[3] = tested on: H460 human lung cancer tumor xenograft
Protocol: The established, transplantable, 5×10^6/200 μL H460 tumor cells were prepared in RPMI medium. The 200 μL of cell suspension was injected subcutaneously into right flank area of each mouse. The mice were randomized into vehicle control and drug treatment groups of four-six animals each when xenografts were palpable with a tumor size of 40 mm^3. Adminitration of the lead compounds or vehicle began on day 15 when the median tumor size was ranged from 75 to 80 mm^3. Tumor-bearing animals were randomized (five per group) prior to treatment. The candidate test drugs were intraperitoneal (IP) administered into with optimal dosage once every other day (48 hr apart) for 7 or 10 times. […] Solvent vehicle and cisplatin (5 mg/kg) were used to administrate, respectively, as io negative and positive controls. Two days after last administration of tested compounds, the animals were sacrificed. The tumor dimensions were measured every other day using a linear caliper and tumor volume is calculated using the equation V (mm^3)=a×b^2/2, where a is the largest diameter and b is the smallest diameter. Body weights are also recorded once weekly. Tumor is growth inhibition ratio (TGI) is calculated using the equation TGI=(1−(the mean treated tumor mass/mean control tumor mass))*100%.

SMILES	effective on MCF-7 cells (MCF-7)	IC50 (MCF-7)	effective on H460 cells (H460)	IC50 (H460)	effective on HT-29 cells (HT-29)	IC50 (HT-29)	IC50 (CEM)	IC50 ([1]; Eahy926 endothelial-like cells)	Cell viability (% of control) 1 μM [2]	Cell viability (% of control) 10 μM [2]	Cell viability (% of control) 50 μM [2]	Cell viability (% of control) 100 μM [2]	Cell viability (% of control) 250 μM [2]	Cell viability (% of control) 500 μM [2]	IC50 (endothelial cells (ECs); ECs)	effective on CEM cells (CEM)	Tumor growth inhibition ratio (TGI) ([3]; CH-205-K study, positive control 5 mg/kg (fifth value of the sentence))	Tumor growth inhibition ratio (TGI) ([3]; CH-205-O study, positive control 5 mg/kg)	IC50 [1]	IC50 (endothelial cells (ECs))
COc1cc(O)c(C(=O)O[C@@H]2C[C@]3(C)C4C(C=C(C=O)[C@]23O)CC(C)(C)[C@@H]4O)c(C)c1Cl (stereo partly drawn) [CH-205-P, (2R,2aS,7R,7bR)-3-formyl-2,2a,4a,5,6,7,7a,7b-octahydro-2a,7-dihydroxy-6,6,7b-trimethyl-1H-cyclobuta[e]inden-2-yl 3-chloro-6-hydroxy-4-methoxy-2-methylbenzoate]	effective	4.4 µM	effective	5.7 µM	effective	34.7 µM	44.6 µM	20.7 µM	105.1 % of control	78.5 % of control	6.8 % of control	9.8 % of control	6.8 % of control	9.6 % of control	0.0018 µM	–	–	–	–	–
Cc1cc(O)cc(O)c1C(=O)O[C@@H]1C[C@]2(C)C3CC(C)(C)CC3C=C(CO)[C@]12O (stereo partly drawn) [CH-205-L, (2R,2aS,7bR)-2,2a,4a,5,6,7,7a,7b-octahydro-2a-hydroxy-3-(hydroxymethyl)-6,6,7b-trimethyl-1H-cyclobuta[e]inden-2-yl 2,4-dihydroxy-6-methylbenzoate]	effective	8.3 µM	effective	5.1 µM	–	58.4 µM	41.2 µM	21.1 µM	93.2 % of control	118.8 % of control	6.5 % of control	6.4 % of control	6.5 % of control	9.8 % of control	0.0011 µM	–	–	–	–	–
Cc1c(Cl)c(O)cc(O)c1C(=O)O[C@@H]1C[C@]2(C)[C@H]3CC(C)(C)C[C@@]3(O)C=C(C=O)[C@]12O [CH-205-N, (2R,2aS,4aR,7aR,7bR)-3-formyl-2,2a,4a,5,6,7,7a,7b-octahydro-2a,4a-dihydroxy-6,6,7b-trimethyl-1H-cyclobuta[e]inden-2-yl 3-chloro-4,6-dihydroxy-2-methylbenzoate]	–	> 100 µM	–	> 100 µM	–	32.1 µM	5.5 µM	270 µM	96.5 % of control	94.1 % of control	96.5 % of control	85.1 % of control	55.2 % of control	7.6 % of control	0.0035 µM	effective	–	–	–	–
N.N.[Cl][Pt][Cl] [cisplatin, reference compound]	–	–	–	–	–	–	–	–	–	–	–	–	–	–	–	–	77.78%	82%	–	–
Cc1c(Cl)c(O)cc(O)c1C(=O)O[C@@H]1C[C@]2(C)C3[C@@H](O)C(C)(C)C[C@@]3(O)C=C(C=O)[C@]12O (stereo partly drawn) [CH-205-Q, (2R,2aS,4aR,7R,7bR)-3-formyl-2,2a,4a,5,6,7,7a,7b-octahydro-2a,4a,7-trihydroxy-6,6,7b-trimethyl-1H-cyclobuta[e]inden-2-yl 3-chloro-4,6-dihydroxy-2-methyl benzoate]	–	> 100 µM	–	> 100 µM	–	> 100 µM	> 100 µM	–	104.7 % of control	98.9 % of control	105.5 % of control	108.6 % of control	100.2 % of control	74.1 % of control	–	–	–	–	> 500 µM	0.001 µM
COc1cc(O)c(C(=O)O[C@@H]2C[C@@]3(C)C2=C(C=O)C=C2CC(C)(C)C[C@@H]23)c(C)c1Cl [CH-205-A]	effective	4.8 µM	effective	5.5 µM	effective	4.6 µM	5.8 µM	24.1 µM	101.4 % of control	87.9 % of control	17.7 % of control	8.4 % of control	7.1 % of control	7.9 % of control	–	effective	–	–	–	0.0403 µM
COc1cc(O)c(C(=O)O[C@@H]2C[C@]3(C)C4[C@@H](O)C(C)(C)C[C@@]4(O)C=C(C=O)[C@]23O)c(C)c1Cl (stereo partly drawn) [CH-205-E, (2R,2a6,4aR,7R,7bR)-3-formyl-2,2a,4a,5,6,7,7a,7b-octahydro-2a,4a,7-trihydroxy-6,6,7b-trimethyl-1H-cyclobuta[e]inden-2-yl 3-chloro-6-hyd roxy-4-methoxy-2-methylbenzoate]	–	> 100 µM	–	> 100 µM	–	85.6 µM	49.6 µM	220 µM	93.5 % of control	98.6 % of control	80.8 % of control	63.7 % of control	32.1 % of control	7.4 % of control	0.023 µM	–	–	–	–	–

— patent US20110262561A1, “Protoilludance Norsesquiterpenoid Esters and Uses Thereof” (NATIONAL RESEARCH INSTITUTE OF CHINESE MEDICINE, priority 2010, published 2011)
